Measurements published in ChEMBL document CHEMBL4406812, “Synthesis of quinones with highlighted biological applications: A critical update on the strategies towards bioactive compounds with emphasis on lapachones” (Eur J Med Chem, 2019).
One block for each molecule: values may come before it.

Legend:
Trypanosoma cruzi [1] = experiment: Anti-parasitic activity against amastigote form of Trypanosoma cruzi after 24 hrs; type: functional, organism-based
HepG2 = experiment: Cytotoxicity against human HepG2 cells assessed as reduction in cell viability after 48 hrs by MTT assay; type: functional, cell-based; conditions: HepG2, 48 h
L02 = experiment: Cytotoxicity against human LO2 cells assessed as reduction in cell viability after 48 hrs by MTT assay; type: functional, cell-based; conditions: L02, 48 h
HL-60 [2] = experiment: Anticancer activity against human HL60 cells by MTT assay; type: functional, cell-based
HCT-116 [3] = experiment: Anticancer activity against human HCT116 cells by MTT assay; type: functional, cell-based
SF-295 [4] = experiment: Anticancer activity against human SF295 cells by MTT assay; type: functional, cell-based
OVCAR-8 [5] = experiment: Anticancer activity against human OVCAR8 cells by MTT assay; type: functional, cell-based
Trypanosoma cruzi [6] = experiment: Anti-parasitic activity against trypomastigotes form of Trypanosoma cruzi after 24 hrs; type: functional, organism-based
HL-60 [7] = experiment: Anticancer activity against human HL60 cells; type: functional, cell-based
HCT-116 [8] = experiment: Anticancer activity against human HCT116 cells; type: functional, cell-based
L929 = experiment: Anticancer activity against mouse L929 cells; type: functional, cell-based
MCF7 = experiment: Anticancer activity against human MCF7 cells; type: functional, cell-based
MDA-MB-435 [9] = experiment: Cytotoxicity against human MDA-MB-435 cells assessed as reduction in cell viability after 72 hrs by MTT assay; type: functional, cell-based; conditions: MDA-MB-435, 72 h
SF-295 [10] = experiment: Cytotoxicity against human SF295 cells assessed as reduction in cell viability after 72 hrs by MTT assay; type: functional, cell-based; conditions: SF-295, 72 h
HL-60 [11] = experiment: Cytotoxicity against human HL60 cells assessed as reduction in cell viability after 72 hrs by MTT assay; type: functional, cell-based; conditions: HL-60, 72 h
HCT-8 [12] = experiment: Cytotoxicity against human HCT8 cells assessed as reduction in cell viability after 72 hrs by MTT assay; type: functional, cell-based; conditions: HCT-8, 72 h
PC-3 [13] = experiment: Anticancer activity against human PC3 cells; type: functional, cell-based
DU-145 = experiment: Anticancer activity against human DU145 cells; type: functional, cell-based
K562 = experiment: Anticancer activity against human K562 cells; type: functional, cell-based
MOLT-4 = experiment: Anticancer activity against human MOLT4 cells; type: functional, cell-based
Jurkat = experiment: Anticancer activity against human Jurkat cells; type: functional, cell-based
HCT-8 [14] = experiment: Anticancer activity against human HCT8 cells; type: functional, cell-based
SW-620 [15] = experiment: Anticancer activity against human SW620 cells; type: functional, cell-based
MX1 = experiment: Anticancer activity against human MX1 cells; type: functional, cell-based
Hs-578T [16] = experiment: Anticancer activity against human Hs578T cells; type: functional, cell-based
MDA-MB-231 = experiment: Anticancer activity against human MDA-MB-231 cells; type: functional, cell-based
SF-295 [17] = experiment: Anticancer activity against human SF295 cells; type: functional, cell-based
SF-268 = experiment: Anticancer activity against human SF268 cells; type: functional, cell-based
MDA-MB-435 [18] = experiment: Anticancer activity against human MDA-MB-435 cells; type: functional, cell-based
UACC-62 = experiment: Anticancer activity against human UACC62 cells; type: functional, cell-based
NCI-H460 = experiment: Anticancer activity against human NCI-H460 cells; type: functional, cell-based
PBMC = experiment: Cytotoxicity against human PBMC; type: cell-based
Trypanosoma cruzi [19] = experiment: Anti-parasitic activity against epimastigotes form of Trypanosoma cruzi; type: functional, organism-based
Hs-578T [20] = experiment: Cytotoxicity against human Hs578T cells assessed as reduction in cell viability after 72 hrs by MTT assay; type: functional, cell-based
SW-620 [21] = experiment: Cytotoxicity against human SW620 cells assessed as reduction in cell viability after 72 hrs by MTT assay; type: functional, cell-based; conditions: SW-620, 72 h
Hs-578T [22] = experiment: Cytotoxicity against human Hs 578T cells assessed as reduction in cell viability after 72 hrs by MTT assay; type: functional, cell-based
NCI-H358 = experiment: Cytotoxicity against human NCI-H358 cells assessed as reduction in cell viability after 72 hrs by MTT assay; type: functional, cell-based; conditions: NCI-H358, 72 h
HL-60 [23] = experiment: Cytotoxicity against human HL60 cells assessed as reduction in cell viability after 48 hrs; type: functional, cell-based; conditions: HL-60, 48 h
HCT-116 [24] = experiment: Cytotoxicity against human HCT116 cells assessed as reduction in cell viability after 48 hrs; type: functional, cell-based; conditions: HCT-116, 48 h
PC-3 [25] = experiment: Cytotoxicity against human PC3 cells assessed as reduction in cell viability after 48 hrs; type: functional, cell-based; conditions: PC-3, 48 h
SF-295 [26] = experiment: Cytotoxicity against human SF295 cells assessed as reduction in cell viability after 48 hrs; type: functional, cell-based; conditions: SF-295, 48 h
MDA-MB-435 [27] = experiment: Cytotoxicity against human MDA-MB-435 cells assessed as reduction in cell viability after 48 hrs; type: functional, cell-based; conditions: MDA-MB-435, 48 h
OVCAR-8 [28] = experiment: Cytotoxicity against human OVCAR8 cells assessed as reduction in cell viability after 48 hrs; type: functional, cell-based; conditions: OVCAR-8, 48 h
Trypanosoma cruzi [29] = experiment: Potency index, ratio of beta-lapachone IC50 to compound IC50 for Trypanosoma cruzi after 24 hrs; type: functional, organism-based
Trypanosoma cruzi [30] = experiment: Anti-parasitic activity against Trypanosoma cruzi; type: functional, organism-based

IC50 (Trypanosoma cruzi [1]): 4.9 µM
Structure (SMILES): CC1(C)Oc2c(c3nc4c5cccnc5c5ncccc5c4nc3c3ccccc23)CC1I (stereo not drawn)

Structure (SMILES): O=C1C(=O)c2ccccc2C2=C1C1(C(=O)N(c3ccccc3)c3ccccc31)N1NN=NC1=N2 (stereo not drawn)
IC50 (HepG2): 2.9 to 36.3 µM | IC50 (L02): 2.9 to 36.3 µM

Structure (SMILES): O=C1C(=O)c2ccccc2C2=C1C1(C(=O)Nc3cc(Cl)ccc31)N1NN=NC1=N2 (stereo not drawn)
IC50 (HepG2): 2.9 to 36.3 µM | IC50 (L02): 2.9 to 36.3 µM

IC50 (HL-60 [2]): 0.23 µM | IC50 (HCT-116 [3]): 0.35 µM | IC50 (OVCAR-8 [5]): 0.7 µM
Structure (SMILES): CC1(C)O[C@@H]2O[C@@H](COC3C4=C(OC3(C)C)c3ccccc3C(=O)C4=O)[C@H]3OC(C)(C)O[C@H]3[C@@H]2O1 (stereo partly drawn)
IC50 (SF-295 [4]): 0.23 µM

IC50 (Trypanosoma cruzi [6]): 12.4 µM
Structure (SMILES): O=C1C=CC(=O)c2c(Sc3ccccc3)cccc21

Structure (SMILES): CC1(C)OC2=C(C(=O)C(=O)c3ccccc32)[C@H](n2cc(C[Se]c3ccc(F)cc3)nn2)[C@H]1Br
IC50 (HL-60 [7]): 0.59 µM | IC50 (HCT-116 [8]): 0.37 µM | IC50 (L929): 0.36 µM

IC50 (MCF7): 0.46 µM
Structure (SMILES): CC1(C)OC2=C(C(=O)C(=O)c3ccccc32)C1CO (stereo not drawn)

Structure (SMILES): O=C1C(=O)c2c(O)cccc2C2=C1CCC(c1ccccc1)O2 (stereo not drawn)
IC50 (MDA-MB-435 [9]): 1.3 µM | IC50 (SF-295 [10]): 1.3 µM | IC50 (HL-60 [11]): 1.3 µM | IC50 (HCT-8 [12]): 1.3 µM

IC50 (PC-3 [13]): 0.34 to 2.17 µM | IC50 (DU-145): 0.34 to 2.17 µM | IC50 (HL-60 [7]): 0.34 to 2.17 µM | IC50 (K562): 0.34 to 2.17 µM | IC50 (MOLT-4): 0.34 to 2.17 µM | IC50 (Jurkat): 0.34 to 2.17 µM | IC50 (HCT-116 [8]): 0.34 to 2.17 µM | IC50 (HCT-8 [14]): 0.34 to 2.17 µM | IC50 (SW-620 [15]): 0.34 to 2.17 µM | IC50 (MX1): 0.34 to 2.17 µM | IC50 (Hs-578T [16]): 0.34 to 2.17 µM | IC50 (MDA-MB-231): 0.34 to 2.17 µM | IC50 (SF-295 [17]): 0.34 to 2.17 µM | IC50 (SF-268): 0.34 to 2.17 µM | IC50 (MDA-MB-435 [18]): 0.34 to 2.17 µM | IC50 (UACC-62): 0.34 to 2.17 µM | IC50 (NCI-H460): 0.34 to 2.17 µM
Structure (SMILES): Cc1cc(C)n2c1C(c1ccc(OCc3cn(C4C5=C(OC4(C)C)c4ccccc4C(=O)C5=O)nn3)cc1)=C1C=CC=[N+]1[B-]2(F)F (stereo not drawn)
IC50 (PBMC): 3.26 µM

IC50 (Trypanosoma cruzi [19]): 19 µM
Structure (SMILES): CCC(C)OP(=O)(N/N=C1\C(=O)C2=C(OC(C)(C)CC2)c2ccccc21)OC(C)CC (stereo not drawn)

IC50 (MCF7): 0.36 µM
Structure (SMILES): COc1cccc2c1C(=O)c1c(O)c3c(c(O)c1C2=O)C[C@@](O)(C(=O)CO)C[C@@H]3O[C@H]1C[C@H](N)[C@H](O)[C@H](C)O1 [DOXORUBICIN]
IC50 (MDA-MB-435 [9]): 0.03 to 0.88 µM | IC50 (SF-295 [10]): 0.03 to 0.88 µM | IC50 (Hs-578T [20]): 0.75 µM | IC50 (SW-620 [21]): 0.77 µM | IC50 (Hs-578T [22]): 0.83 µM | IC50 (NCI-H358): 0.9 µM | IC50 (HCT-8 [12]): 0.03 µM

Structure (SMILES): CC1(C)OC2=C(C(=O)C(=O)c3ccccc32)C1Nc1cccc(-c2cn(C[Se]c3ccccc3)nn2)c1 (stereo not drawn)
IC50 (HL-60 [23]): < 0.1 µM | IC50 (HCT-116 [24]): < 0.1 µM | IC50 (PC-3 [25]): < 0.1 µM | IC50 (SF-295 [26]): < 0.1 µM | IC50 (MDA-MB-435 [27]): < 0.1 µM | IC50 (OVCAR-8 [28]): < 0.1 µM

Structure (SMILES): O=C1C(=O)c2ccccc2C2=C1C1(C(=O)Nc3ccc(Cl)cc31)N1NN=NC1=N2 (stereo not drawn)
IC50 (HepG2): 2.9 to 36.3 µM | IC50 (L02): 2.9 to 36.3 µM

IC50 (HL-60 [7]): 0.07 to 0.37 µM | IC50 (HCT-8 [14]): 0.07 to 0.37 µM | IC50 (SF-295 [17]): 0.07 to 0.37 µM | IC50 (MDA-MB-435 [18]): 0.07 to 0.37 µM
Structure (SMILES): CC1(C)CC(Nc2ccc(Cl)cc2)C2=C(O1)C(=O)c1ccccc1C2=O (stereo not drawn)
IC50 (PBMC): 0.07 to 0.37 µM

IC50 (Trypanosoma cruzi [1]): 23 µM
Structure (SMILES): CC1(C)Cc2c(c3ccccc3c3nc4c5cccnc5c5ncccc5c4nc23)O1

Structure (SMILES): O=C1C(=O)c2ccccc2C2=C1C1(C(=O)Nc3c(Cl)cccc31)N1NN=NC1=N2 (stereo not drawn)
IC50 (HepG2): 2.9 to 36.3 µM | IC50 (L02): 2.9 to 36.3 µM

IC50 (MDA-MB-435 [18]): 0.01 µM
Structure (SMILES): COc1ccc(/N=C2\C(=O)C3=C(OC(C)(C)CC3)c3ccccc32)cc1

Structure (SMILES): O=C1C(=O)c2ccccc2C2=C1C1(C(=O)Nc3ccc(Br)cc31)N1NN=NC1=N2 (stereo not drawn)
IC50 (HepG2): 2.9 to 36.3 µM | IC50 (L02): 2.9 to 36.3 µM

Structure (SMILES): O=C1C(=O)c2ccccc2C2=C1C1(C(=O)Nc3ccccc31)N1NN=NC1=N2 (stereo not drawn)
IC50 (HepG2): 2.9 to 36.3 µM | IC50 (L02): 2.9 to 36.3 µM

IC50 (Trypanosoma cruzi [1]): 4.9 µM
Structure (SMILES): CC1(C)CCc2c(c3ccccc3c3nc4c5cccnc5c5ncccc5c4nc23)O1

IC50 (Trypanosoma cruzi [6]): 7.6 µM
Structure (SMILES): COc1ccc(Sc2cccc3c2C(=O)C=CC3=O)cc1

Structure (SMILES): CC1(C)CCc2c(c3ccccc3c3nc4cc(Nc5ccccc5)/c(=N/c5ccccc5)cc-4n(-c4ccccc4)c23)O1
Ratio IC50 (Trypanosoma cruzi [29]): 61.3

IC50 (Trypanosoma cruzi [30]): 1.4 µM
Structure (SMILES): O=C1C(Br)=C(Br)C(=O)c2c(I)cccc21

IC50 (Trypanosoma cruzi [6]): 2.5 µM
Structure (SMILES): Cc1ccc(Sc2cccc3c2C(=O)C=CC3=O)cc1

Structure (SMILES): O=C1C(=O)c2ccccc2C2=C1C1(C(=O)Nc3c(C(F)(F)F)cccc31)N1NN=NC1=N2 (stereo not drawn)
IC50 (HepG2): 2.9 to 36.3 µM | IC50 (L02): 2.9 to 36.3 µM
